This data set concerns CCRIS mutagenicity, Ames/micronucleus/aberration tests. Description: CCRIS mutagenicity studies.
The mark [1] stands for this setting: Test System: AMES SALMONELLA TYPHIMURIUM, Strain/Indicator: TA98, Metabolic Activation: NONE, Method: PREINCUBATION
The mark [2] stands for this setting: Test System: AMES SALMONELLA TYPHIMURIUM, Strain/Indicator: TA100, Metabolic Activation: NONE, Method: PREINCUBATION
The mark [3] stands for this setting: Test System: E.COLI, Strain/Indicator: WP2 UVRA, Metabolic Activation: NONE, Method: PREINCUBATION
[4] abbreviates: Test System: AMES SALMONELLA TYPHIMURIUM, Strain/Indicator: TA98, Metabolic Activation: NONE, Method: STANDARD PLATE.
[5] abbreviates: Test System: AMES SALMONELLA TYPHIMURIUM, Strain/Indicator: TA98, Metabolic Activation: RAT, LIVER, S-9, AROCLOR 1254, Method: STANDARD PLATE.
The mark [6] stands for this setting: Test System: AMES SALMONELLA TYPHIMURIUM, Strain/Indicator: TA100, Metabolic Activation: NONE, Method: STANDARD PLATE.
Where [7] appears, read: Test System: AMES SALMONELLA TYPHIMURIUM, Strain/Indicator: TA100, Metabolic Activation: RAT, LIVER, S-9, AROCLOR 1254, Method: STANDARD PLATE.
Where [8] appears, read: Test System: AMES SALMONELLA TYPHIMURIUM, Strain/Indicator: TA1535, Metabolic Activation: NONE, Method: STANDARD PLATE.

The source made the active and inactive calls. The rule behind the calls is not given here.

Consider `CNCc1ccc(CSCCNC(=NCC(O)c2ccc(O)cc2)NS(C)(=O)=O)o1` (centres undefined), for which the mutagenic call is, setting by setting: under setting [1], “inactive; negative”; (Test System: AMES SALMONELLA TYPHIMURIUM, Strain/Indicator: TA98, Metabolic Activation: RAT LIVER S-9, PHENOBARBITAL AND 5,6-BENZOFLAVONE, Method: PREINCUBATION) “inactive; negative”; under setting [2], “inactive; negative”; (Test System: AMES SALMONELLA TYPHIMURIUM, Strain/Indicator: TA100, Metabolic Activation: RAT LIVER S-9, PHENOBARBITAL AND 5,6-BENZOFLAVONE, Method: PREINCUBATION) “inactive; negative”; (Test System: AMES SALMONELLA TYPHIMURIUM, Strain/Indicator: TA1535, Metabolic Activation: NONE, Method: PREINCUBATION) “inactive; negative”; (Test System: AMES SALMONELLA TYPHIMURIUM, Strain/Indicator: TA1535, Metabolic Activation: RAT LIVER S-9, PHENOBARBITAL AND 5,6-BENZOFLAVONE, Method: PREINCUBATION) “inactive; negative”. In addition, the mutagenic call is “inactive; negative” (Test System: AMES SALMONELLA TYPHIMURIUM, Strain/Indicator: TA1537, Metabolic Activation: NONE, Method: PREINCUBATION); “inactive; negative” (Test System: AMES SALMONELLA TYPHIMURIUM, Strain/Indicator: TA1537, Metabolic Activation: RAT LIVER S-9, PHENOBARBITAL AND 5,6-BENZOFLAVONE, Method: PREINCUBATION); “inactive; negative” under setting [3]; “inactive; negative” (Test System: E.COLI, Strain/Indicator: WP2 UVRA, Metabolic Activation: RAT LIVER S-9, PHENOBARBITAL AND 5,6-BENZOFLAVONE, Method: PREINCUBATION).

`O=C(Cl)C(Cl)c1ccccc1` (centres undefined): the mutagenic call runs as follows: under setting [1], “active; positive”; (Test System: AMES SALMONELLA TYPHIMURIUM, Strain/Indicator: TA98, Metabolic Activation: RAT LIVER S-9, PCB, Method: PREINCUBATION) “active; positive”; under setting [2], “active; positive”; (Test System: AMES SALMONELLA TYPHIMURIUM, Strain/Indicator: TA100, Metabolic Activation: RAT LIVER S-9, PCB, Method: PREINCUBATION) “active; positive”; (Test System: AMES SALMONELLA TYPHIMURIUM, Strain/Indicator: TA104, Metabolic Activation: NONE, Method: PREINCUBATION) “active; positive”; (Test System: AMES SALMONELLA TYPHIMURIUM, Strain/Indicator: TA104, Metabolic Activation: RAT LIVER S-9, PCB, Method: PREINCUBATION) “active; positive”. Also, the mutagenic call under setting [3] is “active; positive” and the mutagenic call (Test System: E.COLI, Strain/Indicator: WP2 UVRA, Metabolic Activation: RAT LIVER S-9, PCB, Method: PREINCUBATION) was “active; positive”.

For `O=c1cc2ccc3cccc4ccc([nH]1)c2c34`, the mutagenic call is “active; positive” under setting [4], “active; positive” under setting [5], “inactive; negative” under setting [6] and “active; positive” under setting [7].

Consider `c1ccc(Cc2ccc(OCC3CO3)cc2)cc1` (centres undefined), for which the mutagenic call was “active; positive” under setting [6] and “active; positive” under setting [8].

Take `OCC(Cl)(Cl)Cl`: the mutagenic call is, setting by setting: (Test System: AMES SALMONELLA TYPHIMURIUM, Strain/Indicator: TA100, Metabolic Activation: NONE, Method: BAG VAPORIZATION) “inactive; negative”; (Test System: AMES SALMONELLA TYPHIMURIUM, Strain/Indicator: TA100, Metabolic Activation: RAT, LIVER, S-9, AROCLOR 1254, Method: BAG VAPORIZATION) “inactive; negative”.

For `O=c1oc2cc(O)ccc2c2oc3cc(O)ccc3c12`, the mutagenic call is, setting by setting: (End Point: IN VITRO CHROMOSOMAL ABERRATIONS, Test System: HUMAN PERIPHERAL LYMPHOCYTES, Metabolic Activation: NONE) “active; positive (structural changes)”; (Test System: AMES SALMONELLA TYPHIMURIUM, Strain/Indicator: TA98, Metabolic Activation: HAMSTER, LIVER, S-9, AROCLOR 1254, Method: STANDARD PLATE) “inactive; negative”; under setting [4], “inactive; negative”; under setting [5], “inactive; negative”; (Test System: AMES SALMONELLA TYPHIMURIUM, Strain/Indicator: TA100, Metabolic Activation: HAMSTER, LIVER, S-9, AROCLOR 1254, Method: STANDARD PLATE) “inactive; negative”; under setting [6], “inactive; negative”. Further, the mutagenic call under setting [7] is “inactive; negative”; the mutagenic call (Test System: AMES SALMONELLA TYPHIMURIUM, Strain/Indicator: TA1535, Metabolic Activation: HAMSTER, LIVER, S-9, AROCLOR 1254, Method: STANDARD PLATE) is “inactive; negative”; the mutagenic call under setting [8] is “inactive; negative”; the mutagenic call (Test System: AMES SALMONELLA TYPHIMURIUM, Strain/Indicator: TA1535, Metabolic Activation: RAT, LIVER, S-9, AROCLOR 1254, Method: STANDARD PLATE) was “inactive; negative”; the mutagenic call (Test System: AMES SALMONELLA TYPHIMURIUM, Strain/Indicator: TA1537, Metabolic Activation: HAMSTER, LIVER, S-9, AROCLOR 1254, Method: STANDARD PLATE) was “inactive; negative”; the mutagenic call (Test System: AMES SALMONELLA TYPHIMURIUM, Strain/Indicator: TA1537, Metabolic Activation: NONE, Method: STANDARD PLATE) is “inactive; negative”. The mutagenic call (Test System: AMES SALMONELLA TYPHIMURIUM, Strain/Indicator: TA1537, Metabolic Activation: RAT, LIVER, S-9, AROCLOR 1254, Method: STANDARD PLATE) is “inactive; negative”; the mutagenic call (Test System: AMES SALMONELLA TYPHIMURIUM, Strain/Indicator: TA1538, Metabolic Activation: HAMSTER, LIVER, S-9, AROCLOR 1254, Method: STANDARD PLATE) is “inactive; negative”; the mutagenic call (Test System: AMES SALMONELLA TYPHIMURIUM, Strain/Indicator: TA1538, Metabolic Activation: NONE, Method: STANDARD PLATE) was “inactive; negative”; the mutagenic call (Test System: AMES SALMONELLA TYPHIMURIUM, Strain/Indicator: TA1538, Metabolic Activation: RAT, LIVER, S-9, AROCLOR 1254, Method: STANDARD PLATE) was “inactive; negative”; the mutagenic call (Test System: Ames Salmonella typhimurium, Strain/Indicator: TA102, Metabolic Activation: None, Method: Preincubation) was “inactive; negative”; the mutagenic call (Test System: Ames Salmonella typhimurium, Strain/Indicator: TA102, Metabolic Activation: Rat, Liver, S-9, Aroclor 1254 in 0.154 M KCl, Method: Preincubation) is “inactive; negative”. Also, the mutagenic call (Test System: CHINESE HAMSTER LUNG CELLS, Strain/Indicator: V-79 (HPRT)/6-THIOGUANINE, Metabolic Activation: NONE) is “active; positive”; the mutagenic call (Test System: HUMAN LYMPHOBLASTOID CELLS, Strain/Indicator: AHH-1 CELLS(TK+/TK-), Metabolic Activation: NONE, Method: SUSPENSION/PLATE) was “active; positive”; the mutagenic call (Test System: SYRIAN HAMSTER EMBRYO CELLS, Strain/Indicator: HPRT/6-THIOGUANINE, Metabolic Activation: NONE, Method: PLATE) was “active; positive”.

Consider `COc1cc2c(cc1OC)-c1c3c(cc4c1[C@H](C2)N(C)CC4)OCO3`, for which the mutagenic call was “active; positive” (Test System: AMES SALMONELLA TYPHIMURIUM, Strain/Indicator: TA98, Metabolic Activation: RAT, LIVER, S-9, PHENOBARBITAL AND BETA-NAPHTHOFLAVONE, Method: PREINCUBATION) and “active; positive” (Test System: AMES SALMONELLA TYPHIMURIUM, Strain/Indicator: TA100, Metabolic Activation: RAT, LIVER, S-9, PHENOBARBITAL AND BETA-NAPHTHOFLAVONE, Method: PREINCUBATION).

(Values after PubChem BioAssay AID1259407 (Chemical Carcinogenesis Research Information System (CCRIS), 2018).)
